US10011818B2, “Method for in vitro oocyte maturation” (CHINA AGRICULTURE UNIVERSITY, priority 2012, dated 2018)
Like-named read-outs stand apart in the source and are kept apart here.

Columns and labels:
[1] = system: bovine oocytes; test: Effect of CNP pretreatment (pre-IVM) on meiotic resumption of bovine oocytes, nuclear morphology by DAPI staining; type: cell-based; details: for No. of GV oocytes / No. of GVBD oocytes / GV oocytes (%) / GVBD oocytes (%): pre-IVM 6 hours; for GV oocytes (%) / GVBD oocytes (%): mean ± SEM
Experimental: (§1) Bovine ovaries were obtained from a local slaughterhouse, transported at 30-35° C. to the laboratory within 1 hour, and washed in warmed normal saline containing 2% Penicillin G-Streptomycin. Ovarian antral follicles (3-8 mm) were aspirated using an 18-gauge needle. cumulus-oocyte complexes (COCs) with homogenous oocyte cytoplasm and complete, compacted, and multilayered CCs (Grade-1) or complete but fewer than three layers of CCs (Grade-2), were collected using micropipettes.
(§2) Grade-1 and -2 COCs were washed in the washing buffer (HEPES-TCM199) for three times, and then washed in pre-IVM medium (TCM199 containing 3 mg/ml BSA and CNP at different concentrations (50, 100, 200 and 400 nM) for two times. After that, COCs were transfer into pre-IVM medium (pre-warmed for 2 hours) in 4-well plate (500 μl pre-IVM medium and 50 COCs in each well) and cultured for 6 hours at 38.5° C., in humidified air with 5% CO2. After pre-IVM phase, a proportion of COCs are digested with hyaluronidase to remove cumulus cells. To determine the most preferable concentration of CNP for pre-VIM, meiosis kinetics of oocytes was evaluated according to nuclear morphology using DAPI staining under a fluorescence microscope. The oocytes without pre-IVM phase are used as control.

[2] = system: bovine oocytes; test: Effect of CNP pre-IVM and extended IVM on developmental rate of bovine oocytes after IVF (cleavage, blastocyst); type: cell-based; details: for No. of cleavage / cleavage (%) / No. of blastocysts / blastocysts (%): CNP 200 nM pre-IVM 6 h; for No. of cleavage: day 2; for cleavage (%): day 2, mean ± SEM; for No. of blastocysts: day 7; for blastocysts (%): day 7, mean ± SEM
Experimental: as §1, §2
After cultured in pre-IVM medium containing 200 nM CNP, COCs are further cultured in extended-IVM medium (TCM199 supplemented with 10 μg/ml FSH, […], 1 μg/ml E2, 10 ng/ml EGF, 10% FBS) at 38.5° C., in humidified air with 5% CO2. To determine the most preferable duration for extended-IVM, COCs were cultured for 24, 26 or 28 hours. In addition, COCs without pre-IVM phase, are also cultured in […] for 24, 26 or 28 hours as controls.
After maturation, the COCs were fertilized in BO medium for 8 hours at 39° C. under 5% CO2 in a humidified atmosphere. After fertilization, the presumptive zygotes were transferred to 100 μl CR1 culture medium droplets (15 zygotes in each droplets) at 39° C. in a humidified atmosphere. The culture medium was changed every 2 days during the culture period. The percentage cleavage and rates of subsequent embryo development to the blastocyst stage were recorded on day 2 and 7, respectively.

[3] = system: bovine oocytes and subsequent preimplantation embryos
[4] = system: oocyte meiotic arrest; details: mice, Zhang et al., 2010; cited from earlier work
[5] = system: oocyte maturation and embryonic development; details: CNP pretreatment 100 nM alone, without extended IVM; cited from earlier work
[6] = system: oocyte nuclear maturation; details: cited from earlier work
[7] = literature, chemical meiotic inhibitors

C-type natriuretic peptide [CNP]
No. of GV oocytes ([1]; CNP 50 nM): 64
No. of GVBD oocytes ([1]; CNP 50 nM): 37
GV oocytes (%) ([1]; CNP 50 nM): 63.4 ± 3.1%
GVBD oocytes (%) ([1]; CNP 50 nM): 21.3 ± 3.1%
No. of GV oocytes ([1]; CNP 100 nM): 68
No. of GVBD oocytes ([1]; CNP 100 nM): 30
GV oocytes (%) ([1]; CNP 100 nM): 69.4 ± 2.6%
GVBD oocytes (%) ([1]; CNP 100 nM): 30.6 ± 2.6%
rate of oocytes maintaining at GV stage versus control ([1]; CNP 200 nM, P<0.01): significant higher
No. of GV oocytes ([1]; CNP 200 nM): 79
No. of GVBD oocytes ([1]; CNP 200 nM): 18
GV oocytes (%) ([1]; CNP 200 nM): 81.4 ± 2.1%
GVBD oocytes (%) ([1]; CNP 200 nM): 19.6 ± 2.1%
No. of GV oocytes ([1]; CNP 400 nM): 79
No. of GVBD oocytes ([1]; CNP 400 nM): 27
GV oocytes (%) ([1]; CNP 400 nM): 74.5 ± 2.8%
GVBD oocytes (%) ([1]; CNP 400 nM): 25.5 ± 2.8%
inhibitory effect on meiotic resumption outside the range ([1]; concentration higher than 400 nM or lower than 100 nM): no evident inhibitory effect
concentration of maximal inhibitory effect on meiotic resumption ([1]; dose-dependent pattern, bovine oocytes): 200 nM
concentration range with significant inhibition of oocyte meiotic resumption ([1]; pre-IVM pretreatment, bovine oocytes): 100 to 400 nM
No. of cleavage ([2]; extended-IVM 24 h, after IVF): 157
cleavage (%) ([2]; extended-IVM 24 h, after IVF): 81.3 ± 2.7%
No. of blastocysts ([2]; extended-IVM 24 h, after IVF): 53
blastocysts (%) ([2]; extended-IVM 24 h, after IVF): 27.5 ± 1.3%
No. of cleavage ([2]; extended-IVM 26 h, after IVF): 89
cleavage (%) ([2]; extended-IVM 26 h, after IVF): 87.1 ± 0.75%
No. of blastocysts ([2]; extended-IVM 26 h, after IVF): 62
blastocysts (%) ([2]; extended-IVM 26 h, after IVF): 28.6 ± 0.7%
No. of cleavage ([2]; extended-IVM 28 h, after IVF): 186
cleavage (%) ([2]; extended-IVM 28 h, after IVF): 88.3 ± 3.0%
No. of blastocysts ([2]; extended-IVM 28 h, after IVF): 80
blastocysts (%) ([2]; extended-IVM 28 h, after IVF): 37.4 ± 2.5%
blastocyst rates ([2]; CNP pre-IVM plus extended IVM (novel method)): significantly enhances blastocyst rates
cleavage rates versus counterparts without CNP pre-IVM ([2]; CNP pre-treatment followed by extended IVM phase, after IVF): significantly higher
adverse effect on bovine oocytes and subsequent preimplantation embryos [3]: doesn't show any evident adverse effect
preferable concentration of CNP for meiotic inhibition [4]: 100 nM
oocyte maturation and embryonic development result [5]: could not lead to an evidently satisfying results

CN(C)c1ncnc2nc[nH]c12 [6-DMAP]
inhibitory effect on nuclear maturation [6, 7]: evident inhibitory effect

O=C1CCCO1 [butyrolactone]
inhibitory effect on nuclear maturation [6, 7]: evident inhibitory effect

C[C@@H]1C[C@@H]([C@H](O)CC2CC(=O)NC(=O)C2)C(=O)[C@@H](C)C1 [cycloheximide]
inhibitory effect on nuclear maturation [6, 7]: evident inhibitory effect

CC[C@H](CO)Nc1nc(NCc2ccccc2)c2ncn(C(C)C)c2n1 [roscovitine]
inhibitory effect on nuclear maturation [6]: evident inhibitory effect
